Assay: Solubility of API and excipient in the solvent ethanol
Type: physicochemical
Source text: The API-Excipient-Solvent selection was important to this process. The specific API chosen was soluble in the solvent; however the excipient was insoluble in the same solvent. The API-Excipient combination was such that the API molecules easily nucleate on the surface of the excipient. Use of low supersaturation stopped primary nucleation, and ensures the presence of heterogeneous nuclei alone. These nuclei grew further during their stay inside the column. Tuning of residence time and supersaturation helps in tuning of the loading (weight of API per unit weight of product) of excipient particles with drug.
An exemplary embodiment was implemented with Acetaminophen-D-mannitol-Ethanol as a sample API-Excipient-Solvent system. Acetaminophen was soluble in ethanol; however D-mannitol was insoluble in ethanol.

Solubility in ethanol | Compound
soluble | CC(=O)Nc1ccc(O)cc1 [Acetaminophen]
insoluble | OC[C@@H](O)[C@@H](O)[C@H](O)[C@H](O)CO [D-mannitol]
